From patent US8044048B2, “Derivatives of sulindac, use thereof and preparation thereof” (Southern Research Institute, priority 2006, dated 2011)
Where two headings read alike, the source gives them in different places.

Legend:
[1] = test system: human HT29 colon tumor cell line; assay: Growth inhibitory activity / in vitro cytotoxicity against human HT29 colon tumor cells
From the text: These toxicities include gastrointestinal, renal and hematological disturbances which results from COX-1 inhibition as well as cardiovascular toxicity which likely results from COX-2 inhibition.

tumor cells = assay: Cytostatic and cytotoxic activity; type: cell-based; conditions: FIGS. 3A and 3B, compared with sulindac sulfide
From the text: Cytotoxic activity is defined as the ability the treatment to reduce cell number below the number when treatment was initiated and is an indicator of chemotherapeutic efficacy. Cytostasis is defined as the ability of the treatment to reduce cell number relative to untreated cells and is an indicator of chemopreventive efficacy.

[2] = Toxicity in mice, maximum tolerated dose; type: in vivo
Description: FIGS. 5A and 5B show the reduced toxicity of SRI 21009 in mice relative to sulindac. Following a once a day dosing schedule, the maximum tolerated dose of sulindac is estimated to be 50 mg/kg in comparison to 300 mg/kg for SRI 21009.

COX-1 = COX-1 (Homo sapiens, UniProt P23219); assay: COX-1 inhibitory activity; type: biochemical
Sequence of COX-1 (P23219 24-599): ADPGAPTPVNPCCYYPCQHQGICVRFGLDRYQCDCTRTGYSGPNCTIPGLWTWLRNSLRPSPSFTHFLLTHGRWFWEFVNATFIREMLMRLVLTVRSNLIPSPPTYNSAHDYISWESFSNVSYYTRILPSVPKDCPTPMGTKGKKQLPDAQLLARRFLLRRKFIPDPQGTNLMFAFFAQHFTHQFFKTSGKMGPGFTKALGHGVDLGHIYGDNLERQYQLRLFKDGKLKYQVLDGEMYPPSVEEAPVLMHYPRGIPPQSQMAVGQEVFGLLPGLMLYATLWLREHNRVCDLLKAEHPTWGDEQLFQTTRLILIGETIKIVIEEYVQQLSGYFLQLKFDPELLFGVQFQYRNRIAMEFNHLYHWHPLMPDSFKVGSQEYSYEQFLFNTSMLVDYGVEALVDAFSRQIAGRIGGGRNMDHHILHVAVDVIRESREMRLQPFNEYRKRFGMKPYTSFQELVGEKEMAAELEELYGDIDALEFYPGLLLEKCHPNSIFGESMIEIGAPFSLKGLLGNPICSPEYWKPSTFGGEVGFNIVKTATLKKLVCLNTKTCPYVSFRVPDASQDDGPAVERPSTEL

COX-2 = molecular target: T1, COX-2 (Homo sapiens, UniProt P35354); assay: COX-2 inhibitory activity; type: biochemical
T1 sequence (P35354 18-604): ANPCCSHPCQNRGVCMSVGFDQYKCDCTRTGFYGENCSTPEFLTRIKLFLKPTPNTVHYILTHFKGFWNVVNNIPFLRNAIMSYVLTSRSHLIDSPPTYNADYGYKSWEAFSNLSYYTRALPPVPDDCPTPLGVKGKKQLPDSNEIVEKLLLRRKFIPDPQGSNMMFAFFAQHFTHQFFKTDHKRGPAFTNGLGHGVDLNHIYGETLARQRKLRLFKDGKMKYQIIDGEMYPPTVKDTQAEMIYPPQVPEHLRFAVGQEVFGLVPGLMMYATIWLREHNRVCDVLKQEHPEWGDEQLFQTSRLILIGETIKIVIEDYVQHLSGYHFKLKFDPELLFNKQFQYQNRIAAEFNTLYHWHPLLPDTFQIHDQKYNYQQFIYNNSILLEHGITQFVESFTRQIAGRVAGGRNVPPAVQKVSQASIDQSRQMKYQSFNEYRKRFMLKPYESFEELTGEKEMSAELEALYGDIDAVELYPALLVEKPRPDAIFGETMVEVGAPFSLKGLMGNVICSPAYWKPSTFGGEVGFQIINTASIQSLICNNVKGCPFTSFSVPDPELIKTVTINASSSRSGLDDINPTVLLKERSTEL

[3] = Oral bioavailability, plasma levels after oral administration; type: in vivo
[4] = test system: human colon HT29 colon tumor cells; assay: Antitumor activity in athymic nude mice implanted with HT29 tumor cells; type: in vivo; conditions: 300 mg/kg, once a day dosing schedule, HT29 xenograft
[5] = test system: panel of histologically diverse tumor cell types; assay: Growth inhibitory activity against a panel of tumor cell types; type: cell-based; conditions: FIG. 2
[6] = read-out: IC50 value, growth inhibitory activity, human HT29 colon tumor cell line, Table B upper part
[7] = read-out: IC50, growth inhibitory activity, human HT29 colon tumor cell line, Table B lower part
[8] = Homo sapiens, HT-29, read-out: IC50 value, growth inhibitory activity
[9] = Homo sapiens, HT-29, read-out: cytotoxity IC50 values (50% inhibitory concentration)

Compound: N,2-Dimethyl-N-[2-(dimethylamino)ethyl]-5-fluoro-1-[[4-ethylsulfinyl)phenyl]methylene]-1H-indene-3-acetamide [SRI 21179]
- IC50 [1, 6]: 19.8 µM

Compound: CNCCN(C)C(=O)CC1=C(C)/C(=C/c2ccc(SC)cc2)c2ccc(F)cc21 [SRI 21596]
- IC50 [1, 7]: 1.62 µM

Compound: CSc1ccc(/C=C2/C(C)=C(CC(=O)NCc3ccc(N(C)C)cc3)c3cc(F)ccc32)cc1 [SRI 21540, N-[[4-(Dimethylamino)phenyl]methyl]-(Z)-5-fluoro-2-methyl-3-[[4-(methylthio)phenyl]methylene]-1H-indene-3-acetamide]
- IC50 [1, 7]: 3.22 µM

Compound: CC1=C(CC(=O)NCCN2CCCC2)c2cc(F)ccc2C1=Cc1ccc([S+](C)[O-])cc1 (centres unmarked) [SRI 21169, 5-Fluoro-2-methyl-1-[[4-(methylsulfinyl)phenyl]methylene]-N-[2-(1-pyrrolidinyl)ethyl]-1H-indene-3-acetamide]
- IC50 [1, 8]: 17.2 µM

Compound: CC1=C(CC(=O)NCCN(C)C)c2cc(F)ccc2/C1=C\c1ccc(S(C)(=O)=O)cc1 [SRI 21487]
- IC50 [1, 7]: 10 µM

Compound: CC1=C(CC(=O)NCCN2CCNCC2)c2cc(F)ccc2C1=Cc1ccc([S+](C)[O-])cc1 (centres unmarked) [SRI 21113, 5-Fluoro-2-methyl-1-[[4-(methylsulfinyl)phenyl]methylene]-N-[2-(1-piperazinyl)ethyl]-1H-indene-3-acetamide]
- IC50 [1, 8]: 76.9 µM

Compound: CC1=C(CC(=O)NCCN)c2cc(F)ccc2C1=Cc1ccc([S+](C)[O-])cc1 (centres unmarked) [SRI 21185, N-(2-Aminoethyl)-5-fluoro-2-methyl-1-[[4-(methylsulfinyl)phenyl]methylene]-1H-indene-3-acetamide]
- IC50 [1, 8]: 85.2 µM

Compound: CC1=C(CC(=O)NCCN(C)C)c2cc(F)ccc2C1=Cc1ccc([S+](C)[O-])cc1 (centres unmarked) [SRI 21004, N-[2-(Dimethylamino)ethyl]-5-fluoro-2-methyl-1-[[4-(methylsulfinyl)phenyl]methylene]-1H-indene-3-acetamide]
- IC50 [1, 8]: 25.1 µM
- IC50 [1, 9]: 29.2 µM
- cytotoxic activity (reduce cell number below the number when treatment was initiated) (tumor cells): greater potential for chemotherapeutic efficacy compared with sulindac sulfide

Compound: CC1=C(CC(=O)Nc2ccc(N(C)C)cc2)c2cc(F)ccc2/C1=C\c1ccc([S+](C)[O-])cc1 (centres unmarked) [SRI 21590, N-[[4-(Dimethylamino)phenyl]-(Z)-5-fluoro-2-methyl-3-[[4-(methylsulfinyl)phenyl]methylene]]-1H-indene-3-acetamide]
- IC50 [1, 7]: 230 µM

Compound: CC1=C(CC(=O)N2CCN(C)CC2)c2cc(F)ccc2C1=Cc1ccc([S+](C)[O-])cc1 (centres unmarked) [SRI 21387, Ethanone, 2-[5-fluoro-2-methyl-1-[[4-(methylsulfinyl)phenyl]methylene]-1H-inden-3-yl]-1-(4-methylpiperazinyl)]
- IC50 [1, 7]: 71 µM

Compound: CSc1ccc(/C=C2/C(C)=C(CC(=O)Nc3ccc(N(C)C)cc3)c3cc(F)ccc32)cc1 [SRI 21623, N-[[4-(Dimethylamino)phenyl]-(Z)-5-fluoro-2-methyl-3-[[4-(methylthio)phenyl]methylene]]-1H-indene-3-acetamide]
- solubility during the bioassay [1]: solubility issues during the bioassay
- IC50 [1, 7]: > 100 µM

Compound: CC1=C(CC(=O)NCCN2CCCCC2)c2cc(F)ccc2C1=Cc1ccc([S+](C)[O-])cc1 (centres unmarked) [SRI 21114, 5-Fluoro-2-methyl-1-[[4-(methylsulfinyl)phenyl]methylene]-N-[2-(1-piperidinyl)ethyl]-1H-indene-3-acetamide]
- IC50 [1, 8]: 19.7 µM

Compound: CC1=C(CC(=O)O)c2cc(F)ccc2/C1=C\c1ccc([S+](C)[O-])cc1 (centres unmarked) [Sulindac sulfoxide, Sulindac]
- IC50 [1, 6]: 450 µM
- IC50 ([1]; read-out: cytotoxity IC50 values (50% inhibitory concentration), human colon tumor cells, in vitro): 479 µM
- maximum tolerated dose ([2]; mice, once a day dosing schedule): ~50 mg/kg

Compound: CC1=C(CC(=O)NCCc2c[nH]cn2)c2cc(F)ccc2C1=Cc1ccc([S+](C)[O-])cc1 (centres unmarked) [SRI 21229]
- IC50 [1, 6]: 32.6 µM

Compound: CSc1ccc(/C=C2/C(C)=C(CC(=O)O)c3cc(F)ccc32)cc1 [Sulindac sulfide, reference compound]
- IC50 [1, 8]: 45.2 µM
- IC50 [1, 9]: 71.2 µM

Compound: CCN(CC)CCNC(=O)CC1=C(C)C(=Cc2ccc([S+](C)[O-])cc2)c2ccc(F)cc21 (centres unmarked) [SRI 21276]
- IC50 [1, 6]: 18.2 µM

Compound: CC1=C(CC(=O)NCCc2cccnc2)c2cc(F)ccc2C1=Cc1ccc([S+](C)[O-])cc1 (centres unmarked) [SRI 21162, 5-Fluoro-2-methyl-1-[[4-(methylsulfinyl)phenyl]methylene]-N-[2-(3-pyridinyl)ethyl]-1H-indene-3-acetamide]
- IC50 [1, 8]: 99.8 µM

Compound: CC1=C(CC(=O)NCc2ccc(N(C)C)cc2)c2cc(F)ccc2C1=Cc1ccc([S+](C)[O-])cc1 (centres unmarked) [SRI 21275, N-[[4-(Dimethylamino)phenyl]methyl]-5-fluoro-2-methyl-1-[[4-(methylsulfinyl)phenyl]methylene]-1H-indene-3-acetamide]
- IC50 [1, 8]: 6.3 µM

Compound: CC1=C(CC(=O)NCCN2CCOCC2)c2cc(F)ccc2C1=Cc1ccc([S+](C)[O-])cc1 (centres unmarked) [SRI 21178, 5-Fluoro-2-methyl-1-[[4-(methylsulfinyl)phenyl]methylene]-N-[2-(4-morpholinyl)ethyl]-1H-indene-3-acetamide]
- IC50 [1, 8]: 114 µM

Compound: CC1=C(CC(=O)NCC2CCCN2C)c2cc(F)ccc2C1=Cc1ccc([S+](C)[O-])cc1 (centres unmarked) [SRI 21008, 5-Fluoro-2-methyl-N-[(1-methyl-2-pyrrolidinyl)methyl]-1-[[4-(methylsulfinyl)phenyl]methylene]-1H-indene-3-acetamide]
- IC50 [1, 8]: 18.7 µM

Compound: CSc1ccc(/C=C2/C(C)=C(CC(=O)NCCN(C)C)c3cc(F)ccc32)cc1 [SRI 21009, N-[2-(Dimethylamino)ethyl]-5-fluoro-2-methyl-1-[[4-(methylsulfide)phenyl]methylene]-1H-indene-3-acetamide]
- IC50 [1, 8]: 1.47 µM
- IC50 [1, 9]: 1.47 µM
- IC50 (COX-1): 1480 µM
- IC50 (COX-2): 164 µM
- sulindac sulfoxide, sulfone, or sulfide detected in the plasma ([3]; following SRI 21009 administration): Negligible amounts
- achievable plasma levels ([3]; oral administration, single dose of 200 mg/kg): exceeded the IC50 value for in vitro growth inhibition
- MTD ([2]; mouse, in vivo): ~300 mg/kg
- antitumor activity [4]: as effective as sulindac at 50 mg/kg
- growth inhibitory activity across tumor cell types [5]: enhanced sensitivity of tumor cells derived from colorectal tumors compared with other tumor types
